Reference: patent US20230398130A1, “METHODS AND COMPOSITIONS FOR DIFFERENTIATING STEM CELLS” (Massachusetts Institute of Technology, priority 2020, published 2023)

Experiments:
ISC-enriched organoids [1] = test: Primary screen, 384-well 2.5-D organoid differentiation (ENR+CD, 6 days): basal lysozyme secretion (LYZ.NS); format: cell-based, murine; settings: primary screen; for SSMD.LYZ.NS: strictly standardized mean difference; for Dose.FC.LYZ.NS: ENR+CD 6 days, FC vs plate median; for Z.LYZ.NS: standard z score of FC; for Dose.FC.LYZ.NS (log 2 fold change): vs plate median
Source text: (§1) High-throughput screening.

ISC-enriched organoids [2] = test: Primary screen, 384-well 2.5-D organoid differentiation (ENR+CD, 6 days): carbachol-induced lysozyme secretion (LYZ.S); format: cell-based, murine; settings: primary screen; for Z.LYZ.S: standard z score; for SSMD.LYZ.S: strictly standardized mean difference; for Dose.FC.LYZ.S: ENR+CD 6 days, FC vs plate median; for Dose.FC.LYZ.S (log 2 fold change): vs plate median
Source text: as §1

ISC-enriched organoids [3] = test: Primary screen, 384-well 2.5-D organoid differentiation (ENR+CD, 6 days, Target Selective Inhibitor Library, vs whole-plate median): ATP (CellTiter-Glo 3D, CTG); settings: for Z.CTG: standard z score of FC; for SSMD.CTG: strictly standardized mean difference; for Dose.FC.CTG: ENR+CD 6 days, FC vs plate median; for Dose.FC.CTG (log 2 fold change): vs plate median
[4] = 1st of the 4 dose lines of the treatment (dose not given)
[5] = 2nd of the 4 dose lines of the treatment (dose not given)
[6] = 3rd of the 4 dose lines of the treatment (dose not given)
[7] = 4th of the 4 dose lines of the treatment (dose not given)

Molecule `O=C(O)c1ccc(Nc2ncc3c(n2)-c2ccc(Cl)cc2C(c2c(F)cccc2F)=NC3)cc1` [MLN8054] has an SSMD.LYZ.NS (ISC-enriched organoids [1]; [4]) of 0.618, an SSMD.LYZ.NS (ISC-enriched organoids [1]; [5]) of 0.061 and an SSMD.LYZ.NS (ISC-enriched organoids [1]; [6]) of −0.713. The SSMD.LYZ.NS (ISC-enriched organoids [1]; [7]) was −0.870, the Z.LYZ.S (ISC-enriched organoids [2]; [4]) was 0.274 and the Z.LYZ.S (ISC-enriched organoids [2]; [5]) was 1.081. It also gave a Z.LYZ.S (ISC-enriched organoids [2]; [6]) of −0.562, a Z.LYZ.S (ISC-enriched organoids [2]; [7]) of −1.274 and an SSMD.LYZ.S (ISC-enriched organoids [2]; [4]) of 0.241. For the same molecule, the SSMD.LYZ.S (ISC-enriched organoids [2]; [5]) was 0.554, the SSMD.LYZ.S (ISC-enriched organoids [2]; [6]) was −0.486 and the SSMD.LYZ.S (ISC-enriched organoids [2]; [7]) was −0.964. The Z.CTG (ISC-enriched organoids [3]; Dose 0.08 uM) was 0.063, the Z.CTG (ISC-enriched organoids [3]; Dose 0.40 uM) was 0.033 and the Z.CTG (ISC-enriched organoids [3]; Dose 2.00 uM) was −1.111. The Z.CTG (ISC-enriched organoids [3]; Dose 10.00 uM) was −1.191, the SSMD.CTG (ISC-enriched organoids [3]; primary screen, 1st of the 4 dose lines of the treatment (dose not given)) was 0.080 and the SSMD.CTG (ISC-enriched organoids [3]; primary screen, 2nd of the 4 dose lines of the treatment (dose not given)) was 0.035. The SSMD.CTG (ISC-enriched organoids [3]; primary screen, 3rd of the 4 dose lines of the treatment (dose not given)) was −0.959 and the SSMD.CTG (ISC-enriched organoids [3]; primary screen, 4th of the 4 dose lines of the treatment (dose not given)) was −1.480.

In the case of `COc1cc(F)c(C(C)C)cc1-c1ccc(C(F)(F)F)cc1CN1C(=O)O[C@H](c2cc(C(F)(F)F)cc(C(F)(F)F)c2)[C@@H]1C` [Anacetrapib (MK-0859)], the Dose.FC.LYZ.NS (ISC-enriched organoids [1]; dose 0.08 uM) is reported as 0.013 log 2 fold change, the Z.LYZ.NS (ISC-enriched organoids [1]; dose 0.08 uM) is reported as 0.112 and the Dose.FC.LYZ.NS (ISC-enriched organoids [1]; dose 0.40 uM) is reported as 0.007 log 2 fold change. For the same molecule, the Z.LYZ.NS (ISC-enriched organoids [1]; dose 0.40 uM) was 0.060, the Dose.FC.LYZ.NS (ISC-enriched organoids [1]; dose 2.00 uM) was −0.015 log 2 fold change and the Z.LYZ.NS (ISC-enriched organoids [1]; dose 2.00 uM) was −0.129. For the same molecule, the Dose.FC.LYZ.NS (ISC-enriched organoids [1]; dose 10.00 uM) was −0.036 log 2 fold change, the Z.LYZ.NS (ISC-enriched organoids [1]; dose 10.00 uM) was −0.314 and the Dose.FC.LYZ.S (ISC-enriched organoids [2]; dose 0.08 uM) was 0.051 log 2 fold change. The Dose.FC.LYZ.S (ISC-enriched organoids [2]; dose 0.40 uM) was −0.002 log 2 fold change, the Dose.FC.LYZ.S (ISC-enriched organoids [2]; dose 2.00 uM) was −0.046 log 2 fold change and the Dose.FC.LYZ.S (ISC-enriched organoids [2]; dose 10.00 uM) was −0.036 log 2 fold change. For the same molecule, the Dose.FC.CTG (ISC-enriched organoids [3]; primary screen, dose 0.08 uM) was −0.090 log 2 fold change, the Z.CTG (ISC-enriched organoids [3]; primary screen, dose 0.08 uM) was −0.214 and the Dose.FC.CTG (ISC-enriched organoids [3]; primary screen, dose 0.40 uM) was 0.035 log 2 fold change. For the same molecule, the Z.CTG (ISC-enriched organoids [3]; primary screen, dose 0.40 uM) was 0.084, the Dose.FC.CTG (ISC-enriched organoids [3]; primary screen, dose 2.00 uM) was −0.094 log 2 fold change and the Z.CTG (ISC-enriched organoids [3]; primary screen, dose 2.00 uM) was −0.225. The Dose.FC.CTG (ISC-enriched organoids [3]; primary screen, dose 10.00 uM) was 0.031 log 2 fold change and the Z.CTG (ISC-enriched organoids [3]; primary screen, dose 10.00 uM) was 0.075.

`O=C(/C=C/c1ccccc1)NC(NC(=S)Nc1ccc(Cl)cc1)C(Cl)(Cl)Cl` (stereo not drawn) [Sal003] was tested, and the “Z.LYZ.NS (standard z score)” value (ISC-enriched organoids [1]; Dose 0.08 uM) was 1.013, the “Dose.FC.LYZ.NS (log 2 fold change)” value (ISC-enriched organoids [1]; Dose 0.08 uM) was 0.116 and the “Z.LYZ.NS (standard z score)” value (ISC-enriched organoids [1]; Dose 0.40 uM) was 1.595. For the same molecule, the “Dose.FC.LYZ.NS (log 2 fold change)” value (ISC-enriched organoids [1]; Dose 0.40 uM) was 0.183, the “Z.LYZ.NS (standard z score)” value (ISC-enriched organoids [1]; Dose 2.00 uM) was 0.670 and the “Dose.FC.LYZ.NS (log 2 fold change)” value (ISC-enriched organoids [1]; Dose 2.00 uM) was 0.077. For the same molecule, the “Z.LYZ.NS (standard z score)” value (ISC-enriched organoids [1]; Dose 10.00 uM) was −2.142, the “Dose.FC.LYZ.NS (log 2 fold change)” value (ISC-enriched organoids [1]; Dose 10.00 uM) was −0.246 and the “Dose.FC.LYZ.S (log 2 fold change)” value (ISC-enriched organoids [2]; Dose 0.08 uM) was 0.092. For the same molecule, the “Dose.FC.LYZ.S (log 2 fold change)” value (ISC-enriched organoids [2]; Dose 0.40 uM) was 0.067, the “Dose.FC.LYZ.S (log 2 fold change)” value (ISC-enriched organoids [2]; Dose 2.00 uM) was 0.040 and the “Dose.FC.LYZ.S (log 2 fold change)” value (ISC-enriched organoids [2]; Dose 10.00 uM) was −0.408. The “Z.CTG (standard z score)” value (ISC-enriched organoids [3]; Dose 0.08 uM, primary screen) was 0.456, the “Dose.FC.CTG (log 2 fold change)” value (ISC-enriched organoids [3]; Dose 0.08 uM, primary screen) was 0.191 and the “Z.CTG (standard z score)” value (ISC-enriched organoids [3]; Dose 0.40 uM, primary screen) was 0.370. For the same molecule, the “Dose.FC.CTG (log 2 fold change)” value (ISC-enriched organoids [3]; Dose 0.40 uM, primary screen) was 0.155, the “Z.CTG (standard z score)” value (ISC-enriched organoids [3]; Dose 2.00 uM, primary screen) was 0.468 and the “Dose.FC.CTG (log 2 fold change)” value (ISC-enriched organoids [3]; Dose 2.00 uM, primary screen) was 0.196. For the same molecule, the “Z.CTG (standard z score)” value (ISC-enriched organoids [3]; Dose 10.00 uM, primary screen) was −1.981 and the “Dose.FC.CTG (log 2 fold change)” value (ISC-enriched organoids [3]; Dose 10.00 uM, primary screen) was −0.829.
